Reference: patent US20110003692A1, “HERBICIDALLY AND INSECTICIDALLY ACTIVE PHENYL-SUBSTITUTED PYRIDAZINONES” (BAYER CROPSCIENCE AG, priority 2008, published 2011)

Experiments:
[1] = system: eggs from the tobacco budworm (Heliotis virescens); experiment: Heliothis virescens test (spray treatment); format: in vivo; settings: application rate 500 g/ha, spray on soybean leaves, after 7 days
Method: • 78.0 parts by weight of acetone • 1.5 parts by weight of dimethylformamide Emulsifier: 0.5 part by weight of alkylaryl polyglycol ether
To produce a suitable preparation of active compound, 1 part by weight of active compound is mixed with the stated amounts of solvents and emulsifier, and the concentrate is diluted with emulsifier-containing water to the desired concentration. Soybean leaves (Glycine max.) are sprayed with an active compound preparation of the desired concentration and populated with eggs from the tobacco budworm (Heliotis virescens). After 7 days, the effect in % is determined. 100% means that all eggs have been killed, 0% means that no eggs have been killed.

Row | Compound | effect in % (eggs killed) [1] | melting point
1 | CC(C)(C)n1ncc(O)c(-c2ccc(Cl)cc2Cl)c1=O [I-1-a-5] | at least 80% | 
2 | COc1cnn(C)c(=O)c1-c1ccc(Cl)c(Cl)c1 [I-1-h-1, 4-(3,4-dichlorophenyl)-5-methoxy-2-methyl-3(2H)-pyridazinone] |  | 176 °C
